Test results published in the NIST ThermoML archive (doi:10.1016/j.jct.2018.02.022).
Several values for one entry are separate records, joined by “and”; a condition that tells them apart may be missing. Identical values can stand only once.

Test: xn = mol fraction of the nth substance listed
Settings: 92.3 kPa, Liquid; for viscosity: Concentric cylinders viscometry; for speed of sound: Frequency=3 MHz, Single path-length method; for mass density: Vibrating tube method

CCO [ethanol] + O
Settings	mass density, 303.15 K	mass density, 308.15 K	speed of sound, 303.15 K [m/s]	speed of sound, 308.15 K [m/s]	viscosity, 303.15 K [mPa·s]	viscosity, 308.15 K [mPa·s]
x1 = 0.0024	994.464 kg/m3	992.863 kg/m3	1513.4	1523.3	–	–
x1 = 0.0201	986.86 kg/m3	985.15 kg/m3	–	–	0.9816	0.8821
x1 = 0.0202	986.01 kg/m3	984.706 kg/m3	1541.3	1548.3	–	–
x1 = 0.0295	983.11 kg/m3	981.361 kg/m3	1555	1560.3	–	–
x1 = 0.0366	980.577 kg/m3	978.735 kg/m3	1564.9	1568.9	–	–
x1 = 0.0408	978.54 kg/m3	976.58 kg/m3	–	–	1.162	1.006
x1 = 0.0497	976.06 kg/m3	973.32 kg/m3	–	–	1.223	1.073
x1 = 0.0513	975.532 kg/m3	973.534 kg/m3	1583.5	1584.5	–	–
x1 = 0.06	971.89 kg/m3 and 972.787 kg/m3	970.651 kg/m3 and 969.36 kg/m3	1592.4	1591.8	1.323	1.158
x1 = 0.0707	969.513 kg/m3	967.196 kg/m3	1601.4	1598.7	–	–
x1 = 0.0796	966.81 kg/m3	964.08 kg/m3	–	–	1.49	1.284
x1 = 0.0801	966.689 kg/m3	964.224 kg/m3	1607	1602.7	–	–
x1 = 0.0904	963.577 kg/m3	960.944 kg/m3	1610.8	1604.7	–	–
x1 = 0.0997	960.797 kg/m3	958.013 kg/m3	1611.9	1604.4	–	–
x1 = 0.1004	958.69 kg/m3	955.87 kg/m3	–	–	1.656	1.43
x1 = 0.1294	951.878 kg/m3	948.682 kg/m3	1602.7	1592.3	–	–
x1 = 0.1497	945.612 kg/m3	942.174 kg/m3	1588.3	1576.5	–	–
x1 = 0.1499	945.56 kg/m3	942.15 kg/m3	–	–	1.88	1.591
x1 = 0.1984	928.77 kg/m3	925.04 kg/m3	–	–	1.994	1.696
x1 = 0.2008	929.658 kg/m3	925.836 kg/m3	1540.8	1527.8	–	–
x1 = 0.2499	915.3 kg/m3	911.28 kg/m3	–	–	2.048	1.719
x1 = 0.2503	914.742 kg/m3	910.712 kg/m3	1493.5	1480	–	–
x1 = 0.2998	900.761 kg/m3	896.603 kg/m3	1450.6	1436.6	–	–
x1 = 0.3016	900.76 kg/m3	896.6 kg/m3	–	–	1.982	1.697
x1 = 0.3499	888.09 kg/m3	883.84 kg/m3	–	–	1.934	1.664
x1 = 0.3507	887.521 kg/m3	883.273 kg/m3	1411.8	1397.3	–	–
x1 = 0.399	876.09 kg/m3	871.78 kg/m3	–	–	1.863	1.617
x1 = 0.3992	875.988 kg/m3	871.678 kg/m3	1379.4	1364.6	–	–
x1 = 0.4495	865.03 kg/m3	860.66 kg/m3	–	–	1.783	1.55
x1 = 0.4514	864.712 kg/m3	860.353 kg/m3	1348.7	1333.4	–	–
x1 = 0.4989	855.7 kg/m3	851.3 kg/m3	–	–	1.697	1.482
x1 = 0.5002	854.622 kg/m3	850.223 kg/m3	1322.3	1306.7	–	–
x1 = 0.5494	845.433 kg/m3	841.009 kg/m3	1298.6	1282.7	–	–
x1 = 0.5495	846.35 kg/m3	841.93 kg/m3	–	–	1.636	1.437
x1 = 0.6018	836.274 kg/m3	831.83 kg/m3	1275.2	1259	–	–
x1 = 0.6067	835.6 kg/m3	831.06 kg/m3	–	–	1.528	1.347
x1 = 0.6503	828.55 kg/m3 and 828.435 kg/m3	823.98 kg/m3 and 824.09 kg/m3	1255.3	1238.8	1.46	1.292
x1 = 0.6956	821.65 kg/m3	817.19 kg/m3	–	–	1.388	1.229
x1 = 0.7006	820.66 kg/m3	816.2 kg/m3	1235.5	1218.8	–	–
x1 = 0.7355	815.498 kg/m3	811.052 kg/m3	1222.2	1206.3	–	–
x1 = 0.75	813.63 kg/m3	809.16 kg/m3	–	–	1.315	1.171
x1 = 0.7843	809.09 kg/m3	804.63 kg/m3	–	–	1.272	1.135
x1 = 0.7965	807.074 kg/m3	802.628 kg/m3	1199.9	1183	–	–
x1 = 0.8433	800.833 kg/m3	796.401 kg/m3	1183.1	1166.1	–	–
x1 = 0.8475	801.24 kg/m3	796.81 kg/m3	–	–	1.201	1.077
x1 = 0.8864	795.58 kg/m3	791.17 kg/m3	–	–	1.141	1.027
x1 = 0.892	794.442 kg/m3	790.037 kg/m3	1165.4	1148.7	–	–
x1 = 0.9093	792.256 kg/m3	787.861 kg/m3	1159.2	1142.6	–	–
x1 = 0.9207	790.841 kg/m3	786.448 kg/m3	1155.2	1138.3	–	–
x1 = 0.929	789.85 kg/m3	785.46 kg/m3	–	–	1.086	0.9821
x1 = 0.9307	789.562 kg/m3	785.175 kg/m3	1151.5	1134.6	–	–
x1 = 0.9398	788.477 kg/m3	784.096 kg/m3	1148.3	1131.4	–	–
x1 = 0.9483	787.394 kg/m3	783.019 kg/m3	1145.2	1128.4	–	–
x1 = 0.9603	785.958 kg/m3	781.59 kg/m3	1141.1	1124.2	–	–
x1 = 0.9702	784.743 kg/m3	780.379 kg/m3	1137.5	1120.6	–	–
x1 = 0.9801	783.417 kg/m3	779.061 kg/m3	1134.3	1117.5	–	–
x1 = 0.9895	782.456 kg/m3	778.103 kg/m3	1130.8	1114	–	–
x1 = 1	780.941 kg/m3	776.592 kg/m3	1126.4	1109.6	0.992	0.9039
